Here are results for 34 compounds from patent US20150291598A1 (NOVARTIS AG, priority 2012, published 2015).

The structures appear in SMILES notation.

The subject of this experiment is P. falciparum (NF54 or 3D7 strain). The experiment in a line: Assay for P. falciparum proliferation in infected human blood cells (SYBR Green). Type of experiment: cell-based, Plasmodium falciparum. The following applies: Plasmodium falciparum, Erythrocyte, 72 h, NF54 or 3D7 infected human erythrocytes, 72 hours; read-out: EC50 (nM), inhibitory efficacy in delaying P. falciparum proliferation in infected human blood cells. In outline: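 NF54 or 3D7 parasites in O+ human erythrocytes at 2.5% hematocrit and 0.3% parasitemia final, exposed to compounds 72 h at 37 °C under 93% N2/4% CO2/3% O2.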
On to `CN(C(=O)c1cn2c(-c3ccc(NC(=O)[C@@H](N)C4CCCCC4)cc3)cnc2cn1)c1ccc(C#N)cc1` [Compound 212, 3-{4-[(2S)-2-amino-2-cyclohexylacetamido]phenyl}-N-(4-cyanophenyl)-N-methylimidazo[1,2-a]pyrazine-6-carboxamide], for which the EC50 came to 137 nM. Turning to `CN(C(=O)c1cn2c(-c3ccc(OC(F)F)cc3)cnc2cn1)c1ccc(C#N)cc1` [Compound 214, N-(4-cyanophenyl)-3-[4-(difluoromethoxy)phenyl]-N-methylimidazo[1,2-a]pyrazine-6-carboxamide], the EC50 was 31 nM.

Take `CN(C(=O)c1cn2c(-c3ccc(C(F)(F)F)cc3)cnc2cn1)c1ccc(Br)cc1` [Compound 215, N-(4-bromophenyl)-N-methyl-3-[4-(trifluoromethyl)phenyl]imidazo[1,2-a]pyrazine-6-carboxamide]: the EC50 is 86 nM. `CN(C(=O)c1cn2c(-c3ccc(N4CCCCC4)cc3)cnc2cn1)c1ccc(Cl)nc1` [Compound 216, N-(6-chloropyridin-3-yl)-N-methyl-3-[4-(piperidin-1-yl)phenyl]imidazo[1,2-a]pyrazine-6-carboxamide]: the EC50 amounted to 5710 nM. With `CN(C(=O)c1cn2c(-c3ccc(C(F)(F)F)cc3)cnc2cn1)c1ccc(Cl)cc1` [Compound 217, N-(4-chlorophenyl)-N-methyl-3-[4-(trifluoromethyl)phenyl]imidazo[1,2-a]pyrazine-6-carboxamide], the EC50 stood at 36 nM.

With `O=C(c1cn2c(-c3ccc(C(F)(F)F)cc3)cnc2cn1)N1CCCc2cc(Cl)ccc21` [Compound 218, 6-chloro-1-({3-[4-(trifluoromethyl)phenyl]imidazo[1,2-a]pyrazin-6-yl}carbonyl)-1,2,3,4-tetrahydroquinoline], the EC50 worked out at 680 nM. The same measure for `COc1ccc(-c2cnc3cnc(C(=O)N(C)c4ccc(Cl)cc4)cn23)cc1` [Compound 219, N-(4-chlorophenyl)-3-(4-methoxyphenyl)-N-methylimidazo[1,2-a]pyrazine-6-carboxamide]: 63 nM; for `Cc1cnc(Cl)c(N(C)C(=O)c2cn3c(-c4ccc(C(F)(F)F)cc4)cnc3cn2)c1` [Compound 220, N-(2-chloro-5-methylpyridin-3-yl)-N-methyl-3-[4-(trifluoromethyl)phenyl]imidazo[1,2-a]pyrazine-6-carboxamide]: 4040 nM; for `CN(C(=O)c1cn2c(-c3ccc(C(F)(F)F)cc3)cnc2cn1)c1ncccc1F` [Compound 221, N-(3-fluoropyridin-2-yl)-N-methyl-3-[4-(trifluoromethyl)phenyl]imidazo[1,2-a]pyrazine-6-carboxamide]: 4970 nM. As for `CN(C(=O)c1cn2c(-c3ccc(-c4ccn[nH]4)cc3)cnc2cn1)c1ccc(Cl)nc1` [Compound 224, N-(6-chloropyridin-3-yl)-N-methyl-3-[4-(1H-pyrazol-5-yl)phenyl]imidazo[1,2-a]pyrazine-6-carboxamide], the EC50 amounted to 149 nM. The result for `COC(=O)Nc1ccc(-c2cnc3cnc(CN(C)c4ccc(C#N)cc4)cn23)cc1` [Compound 225, methyl N-[4-(6-{[(4-cyanophenyl)(methyl)amino]methyl}imidazo[1,2-a]pyrazin-3-yl)phenyl]carbamat] reads 37 nM; that for `CC(=O)Nc1ccc(-c2cnc3cnc(CN(C)c4ccc(C#N)cc4)cn23)cn1` [Compound 226, N-[5-(6-{[(4-cyanophenyl)(methyl)amino]methyl}imidazo[1,2-a]pyrazin-3-yl)pyridin-2-yl]acetamide], 37 nM.

On to `CN(C(=O)c1cn2c(-c3ccc(-c4nnc(N)o4)cc3)cnc2cn1)c1ccc(F)cc1` [Compound 227, 3-[4-(5-amino-1,3,4-oxadiazol-2-yl)phenyl]-N-(4-fluorophenyl)-N-methylimidazo[1,2-a]pyrazine-6-carboxamide], for which the EC50 came out at 40 nM. The same measure for `CC1(C)CCc2cc(F)ccc2N1C(=O)c1cn2c(-c3ccc(C(N)=O)cc3)cnc2cn1` [Compound 229, 4-{6-[(6-fluoro-2,2-dimethyl-1,2,3,4-tetrahydroquinolin-1-yl)carbonyl]imidazo[1,2-a]pyrazin-3-yl}benzamide]: 19 nM; for `CC1(C)CCc2cc(F)ccc2N1C(=O)c1cn2c(-c3ccc(C(F)(F)F)cc3)cnc2cn1` [Compound 230, 6-fluoro-2,2-dimethyl-1-({3-[4-(trifluoromethyl)phenyl]imidazo[1,2-a]pyrazin-6-yl}carbonyl)-1,2,3,4-tetrahydroquinoline]: 21 nM; for `CN(Cc1cn2c(-c3ccc(C(F)(F)F)cc3)cnc2cn1)c1ccc(Cl)nc1` [Compound 231, 6-chloro-N-methyl-N-({3-[4-(trifluoromethyl)phenyl]imidazo[1,2-a]pyrazin-6-yl}methyl)pyridin-3-amine]: 74 nM. For the compound `CN(C(=O)c1cn2c(-c3ccc(C#N)cc3)cnc2cn1)c1ccc(S(C)(=O)=O)cc1` [Compound 232, 3-(4-cyanophenyl)-N-(4-methanesulfonylphenyl)-N-methylimidazo[1,2-a]pyrazine-6-carboxamide], the EC50 was 3990 nM.

In the case of `Cc1ccc(N(C)Cc2cn3c(-c4ccc(C(N)=O)cc4)cnc3cn2)nc1` [Compound 233, 4-(6-{[methyl(5-methylpyridin-2-yl)amino]methyl}imidazo[1,2-a]pyrazin-3-yl)benzamide], the EC50 was 138 nM.

For the compound `Fc1ccc2c(c1)CCCN2Cc1cn2c(-c3ccc(C(F)(F)F)cc3)cnc2cn1` [Compound 234, 6-fluoro-1-({3-[4-(trifluoromethyl)phenyl]imidazo[1,2-a]pyrazin-6-yl}methyl)-1,2,3,4-tetrahydroquinoline], the EC50 was 148 nM.

Consider `CN(C(=O)c1cn2c(-c3ccc(C(C)(F)F)cc3)cnc2cn1)c1ccc(Cl)nc1` [Compound 237, N-(6-chloropyridin-3-yl)-3-[4-(1,1-difluoroethyl)phenyl]-N-methylimidazo[1,2-a]pyrazine-6-carboxamide], for which the EC50 was found to be 100 nM. With `COCCN(C(=O)c1cn2c(-c3ccc(C(F)(F)F)cc3)cnc2cn1)c1ccc(C#N)cc1` [Compound 238, N-(4-cyanophenyl)-N-(2-methoxyethyl)-3-[4-(trifluoromethyl)phenyl]imidazo[1,2-a]pyrazine-6-carboxamide], the EC50 is 152 nM. In the case of `CN(C(=O)c1cn2c(-c3ccc(C(F)(F)F)cc3)cnc2cn1)c1ccc(C(F)(F)F)nc1` [Compound 239, N-methyl-3-[4-(trifluoromethyl)phenyl]-N-[6-(trifluoromethyl)pyridin-3-yl]imidazo[1,2-a]pyrazine-6-carboxamide], the EC50 amounted to 6880 nM. Take `CN(C(=O)c1cn2c(-c3ccc(-c4nnco4)cc3)cnc2cn1)c1ccc(C#N)cc1` [Compound 240, N-(4-cyanophenyl)-N-methyl-3-[4-(1,3,4-oxadiazol-2-yl)phenyl]imidazo[1,2-a]pyrazine-6-carboxamide]: the EC50 was determined as 112 nM. On to `Cc1ccc(N(C)Cc2cn3c(-c4ccc(C(F)F)cc4)cnc3cn2)nc1` [Compound 241, N-({3-[4-(difluoromethyl)phenyl]imidazo[1,2-a]pyrazin-6-yl}methyl)-N,5-dimethylpyridin-2-amine], for which the EC50 is 262 nM. `CC(=O)Nc1ccc(-c2cnc3cnc(CN(C)c4ccc(C)cn4)cn23)cn1` [Compound 242, N-[5-(6-{[methyl(5-methylpyridin-2-yl)amino]methyl}imidazo[1,2-a]pyrazin-3-yl)pyridin-2-yl]acetamide]: the EC50 turned out to be 215 nM. On to `CN(C(=O)c1cn2c(-c3cnc4[nH]ccc4c3)cnc2cn1)c1ccc(C#N)cc1` [Compound 243, N-(4-cyanophenyl)-N-methyl-3-{1H-pyrrolo[2,3-b]pyridin-5-yl}imidazo[1,2-a]pyrazine-6-carboxamide], for which the EC50 came to 98 nM. As for `CNC(=O)c1ccc(-c2cnc3cnc(C(=O)N(C)c4ccc(F)cc4)cn23)cc1` [Compound 244, N-(4-fluorophenyl)-N-methyl-3-[4-(methylcarbamoyl)phenyl]imidazo[1,2-a]pyrazine-6-carboxamide], the EC50 turned out to be 290 nM. `COC(=O)Nc1ccc(-c2cnc3cnc(C(=O)N(C)c4ccc(Cl)nc4)cn23)cc1` [Compound 245, methyl N-(4-{6-[(6-chloropyridin-3-yl)(methyl)carbamoyl]imidazo[1,2-a]pyrazin-3-yl}phenyl)carbamate]: the EC50 worked out at 226 nM. Regarding `CNc1ccc(-c2cnc3cnc(C(=O)N(C)c4ccc(C#N)cc4)cn23)cn1` [Compound 246, N-(4-cyanophenyl)-N-methyl-3-[6-(methylamino)pyridin-3-yl]imidazo[1,2-a]pyrazine-6-carboxamide], the EC50 was found to be 310 nM.

For the compound `CN(C(=O)c1cn2c(-c3ccc(NC(=O)CN)cc3)cnc2cn1)c1ccc(C#N)cc1` [Compound 247, 3-[4-(2-aminoacetamido)phenyl]-N-(4-cyanophenyl)-N-methylimidazo[1,2-a]pyrazine-6-carboxamide], the EC50 is 611 nM. Turning to `CN(C(=O)c1cn2c(-c3ccc(-c4nnc(N)o4)cc3)cnc2cn1)c1ccc(C#N)cc1` [Compound 248, 3-[4-(5-amino-1,3,4-oxadiazol-2-yl)phenyl]-N-(4-cyanophenyl)-N-methylimidazo[1,2-a]pyrazine-6-carboxamide], the EC50 stood at 87 nM. As to `CN(C(=O)c1cn2c(-c3ccc(C(F)(F)F)cc3)cnc2cn1)c1ccncc1` [Compound 249, N-methyl-N-(pyridin-4-yl)-3-[4-(trifluoromethyl)phenyl]imidazo[1,2-a]pyrazine-6-carboxamide], the EC50 was 635 nM. For `COc1ncc(C)cc1N(C)C(=O)c1cn2c(-c3ccc(C(F)(F)F)cc3)cnc2cn1` [Compound 250, N-(2-methoxy-5-methylpyridin-3-yl)-N-methyl-3-[4-(trifluoromethyl)phenyl]imidazo[1,2-a]pyrazine-6-carboxamide], the EC50 came to 302 nM.

For `Cc1cncc(N(C)C(=O)c2cn3c(-c4ccc(C(F)(F)F)cc4)cnc3cn2)c1` [Compound 251, N-methyl-N-(5-methylpyridin-3-yl)-3-[4-(trifluoromethyl)phenyl]imidazo[1,2-a]pyrazine-6-carboxamide], the EC50 is 5520 nM.
